Measurements taken from the supplement of paper PMC10307832.

Tests used:
Experiment in all cases: relative viability (nuclei count vs DMSO), 5 days (fraction); higher = more cells survive
UMC-11 = system: UMC-11
In short: (§1)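 A single step with final 0.05% Triton X-100, 1% formaldehyde and 1 ug/ml Hoechst fixed the cells and stained nuclei 5 days after treatment. Lung cancer cell lines in 1536-well plates had been treated by pin tool the day after seeding with one drug alone or a fixed anchor-drug dose plus five library-drug doses (not always all listed) in √10 steps, and nuclei were counted on 4× images. Relative viability is the ratio of nuclei in treated wells to nuclei in vehicle wells, taken as the median of duplicate plates.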

NCI-H1975 = system: NCI-H1975
In short: as §1

NCI-H2087 = system: NCI-H2087
In short: as §1

NCI-H2009 = system: NCI-H2009
In short: as §1

H3255 = system: H3255
In short: as §1

NCI-H2085 = system: NCI-H2085
In short: as §1

NCI-H23 = system: NCI-H23
In short: as §1

HCC-827 = system: HCC-827
In short: as §1

LXF-289 = system: LXF-289
In short: as §1

PC-3 [JPC-3] = system: PC-3 [JPC-3]
In short: as §1

NCI-H1437 = system: NCI-H1437
In short: as §1

LC-2-ad = system: LC-2-ad
In short: as §1

LCLC-103H = system: LCLC-103H
In short: as §1

NCI-H661 = system: NCI-H661
In short: as §1

NCI-H2342 = system: NCI-H2342
In short: as §1

COR-L23 = system: COR-L23
In short: as §1

NCI-H2228 = system: NCI-H2228
In short: as §1

ABC-1 = system: ABC-1
In short: as §1

HCC-366 = system: HCC-366
In short: as §1

SK-MES-1 = system: SK-MES-1
In short: as §1

PC-14 = system: PC-14
In short: as §1

HCC-15 = system: HCC-15
In short: as §1

NCI-H1666 = system: NCI-H1666
In short: as §1

Compound: CCNC(=O)c1noc(-c2cc(C(C)C)c(O)cc2O)c1-c1ccc(CN2CCOCC2)cc1 [Luminespib] + O=C(c1cc(Cc2n[nH]c(=O)c3ccccc23)ccc1F)N1CCN(C(=O)C2CC2)CC1 [Olaparib] (partner 8 µM)
- relative viability (UMC-11; first compound 0.002 µM): 0.391
- relative viability (UMC-11; first compound 0.006325 µM): 0.403
- relative viability (UMC-11; first compound 0.02 µM): 0.401
- relative viability (UMC-11; first compound 0.06325 µM): 0.205
- relative viability (UMC-11; first compound 0.2 µM): 0.149
- relative viability (NCI-H1975; first compound 0.002 µM): 0.875
- relative viability (NCI-H1975; first compound 0.006325 µM): 0.802
- relative viability (NCI-H1975; first compound 0.02 µM): 0.919
- relative viability (NCI-H1975; first compound 0.06325 µM): 0.128
- relative viability (NCI-H1975; first compound 0.2 µM): 0.156
- relative viability (NCI-H2087; first compound 0.002 µM): 0.639
- relative viability (NCI-H2087; first compound 0.006325 µM): 0.518
- relative viability (NCI-H2087; first compound 0.02 µM): 0.559
- relative viability (NCI-H2087; first compound 0.06325 µM): 0.116
- relative viability (NCI-H2087; first compound 0.2 µM): 0.113
- relative viability (NCI-H2009; first compound 0.002 µM): 0.763
- relative viability (NCI-H2009; first compound 0.006325 µM): 0.67
- relative viability (NCI-H2009; first compound 0.02 µM): 0.701
- relative viability (NCI-H2009; first compound 0.06325 µM): 0.409
- relative viability (NCI-H2009; first compound 0.2 µM): 0.0486
- relative viability (H3255; first compound 0.002 µM): 0.59
- relative viability (H3255; first compound 0.006325 µM): 0.521
- relative viability (H3255; first compound 0.02 µM): 0.563
- relative viability (H3255; first compound 0.06325 µM): 0.337
- relative viability (H3255; first compound 0.2 µM): 0.253
- relative viability (NCI-H2085; first compound 0.002 µM): 0.78
- relative viability (NCI-H2085; first compound 0.006325 µM): 0.742
- relative viability (NCI-H2085; first compound 0.02 µM): 0.766
- relative viability (NCI-H2085; first compound 0.06325 µM): 0.425
- relative viability (NCI-H2085; first compound 0.2 µM): 0.337
- relative viability (NCI-H23; first compound 0.002 µM): 0.36
- relative viability (NCI-H23; first compound 0.006325 µM): 0.333
- relative viability (NCI-H23; first compound 0.02 µM): 0.346
- relative viability (NCI-H23; first compound 0.06325 µM): 0.102
- relative viability (NCI-H23; first compound 0.2 µM): 0.121
- relative viability (HCC-827; first compound 0.002 µM): 0.595
- relative viability (HCC-827; first compound 0.006325 µM): 0.64
- relative viability (HCC-827; first compound 0.02 µM): 0.537
- relative viability (HCC-827; first compound 0.06325 µM): 0.143
- relative viability (HCC-827; first compound 0.2 µM): 0.167
- relative viability (LXF-289; first compound 0.002 µM): 1.01
- relative viability (LXF-289; first compound 0.006325 µM): 1.03
- relative viability (LXF-289; first compound 0.02 µM): 1.2
- relative viability (LXF-289; first compound 0.06325 µM): 0.99
- relative viability (LXF-289; first compound 0.2 µM): 0.805
- relative viability (PC-3 [JPC-3]; first compound 0.002 µM): 1.09
- relative viability (PC-3 [JPC-3]; first compound 0.006325 µM): 1.04
- relative viability (PC-3 [JPC-3]; first compound 0.02 µM): 0.863
- relative viability (PC-3 [JPC-3]; first compound 0.06325 µM): 0.392
- relative viability (PC-3 [JPC-3]; first compound 0.2 µM): 0.398
- relative viability (NCI-H1437; first compound 0.002 µM): 0.806
- relative viability (NCI-H1437; first compound 0.006325 µM): 0.63
- relative viability (NCI-H1437; first compound 0.02 µM): 0.684
- relative viability (NCI-H1437; first compound 0.06325 µM): 0.259
- relative viability (NCI-H1437; first compound 0.2 µM): 0.211
- relative viability (LC-2-ad; first compound 0.002 µM): 0.704
- relative viability (LC-2-ad; first compound 0.006325 µM): 0.713
- relative viability (LC-2-ad; first compound 0.02 µM): 0.866
- relative viability (LC-2-ad; first compound 0.06325 µM): 0.48
- relative viability (LC-2-ad; first compound 0.2 µM): 0.297
- relative viability (LCLC-103H; first compound 0.002 µM): 0.76
- relative viability (LCLC-103H; first compound 0.006325 µM): 0.73
- relative viability (LCLC-103H; first compound 0.02 µM): 0.78
- relative viability (LCLC-103H; first compound 0.06325 µM): 0.681
- relative viability (LCLC-103H; first compound 0.2 µM): 0.809
- relative viability (NCI-H661; first compound 0.002 µM): 0.754
- relative viability (NCI-H661; first compound 0.006325 µM): 0.804
- relative viability (NCI-H661; first compound 0.02 µM): 0.807
- relative viability (NCI-H661; first compound 0.06325 µM): 0.414
- relative viability (NCI-H661; first compound 0.2 µM): 0.3
- relative viability (NCI-H2342; first compound 0.002 µM): 0.411
- relative viability (NCI-H2342; first compound 0.006325 µM): 0.512
- relative viability (NCI-H2342; first compound 0.02 µM): 0.324
- relative viability (NCI-H2342; first compound 0.06325 µM): 0.348
- relative viability (NCI-H2342; first compound 0.2 µM): 0.238
- relative viability (COR-L23; first compound 0.002 µM): 0.371
- relative viability (COR-L23; first compound 0.006325 µM): 0.344
- relative viability (COR-L23; first compound 0.02 µM): 0.482
- relative viability (COR-L23; first compound 0.06325 µM): 0.0712
- relative viability (COR-L23; first compound 0.2 µM): 0.0572
- relative viability (NCI-H2228; first compound 0.002 µM): 0.595
- relative viability (NCI-H2228; first compound 0.006325 µM): 0.638
- relative viability (NCI-H2228; first compound 0.02 µM): 0.326
- relative viability (NCI-H2228; first compound 0.06325 µM): 0.128
- relative viability (NCI-H2228; first compound 0.2 µM): 0.142
- relative viability (ABC-1; first compound 0.002 µM): 0.928
- relative viability (ABC-1; first compound 0.006325 µM): 1.02
- relative viability (ABC-1; first compound 0.02 µM): 0.526
- relative viability (ABC-1; first compound 0.06325 µM): 0.337
- relative viability (ABC-1; first compound 0.2 µM): 0.244
- relative viability (HCC-366; first compound 0.002 µM): 0.401
- relative viability (HCC-366; first compound 0.006325 µM): 0.345
- relative viability (HCC-366; first compound 0.02 µM): 0.424
- relative viability (HCC-366; first compound 0.06325 µM): 0.0205
- relative viability (HCC-366; first compound 0.2 µM): 0.0254
- relative viability (SK-MES-1; first compound 0.002 µM): 0.713
- relative viability (SK-MES-1; first compound 0.006325 µM): 0.629
- relative viability (SK-MES-1; first compound 0.02 µM): 0.326
- relative viability (SK-MES-1; first compound 0.06325 µM): 0.17
- relative viability (SK-MES-1; first compound 0.2 µM): 0.157
- relative viability (PC-14; first compound 0.002 µM): 0.288
- relative viability (PC-14; first compound 0.006325 µM): 0.261
- relative viability (PC-14; first compound 0.02 µM): 0.101
- relative viability (PC-14; first compound 0.06325 µM): 0.0578
- relative viability (PC-14; first compound 0.2 µM): 0.0514
- relative viability (HCC-15; first compound 0.002 µM): 0.778
- relative viability (HCC-15; first compound 0.006325 µM): 0.682
- relative viability (HCC-15; first compound 0.02 µM): 0.734
- relative viability (HCC-15; first compound 0.06325 µM): 0.345
- relative viability (HCC-15; first compound 0.2 µM): 0.154
- relative viability (NCI-H1666; first compound 0.002 µM): 0.778
- relative viability (NCI-H1666; first compound 0.006325 µM): 0.733
- relative viability (NCI-H1666; first compound 0.02 µM): 0.753
- relative viability (NCI-H1666; first compound 0.06325 µM): 0.75
- relative viability (NCI-H1666; first compound 0.2 µM): 0.716
